Consider three molecules from PMC3356272, “An Analogue of the Antibiotic Teicoplanin Prevents Flavivirus Entry In Vitro” (PLoS ONE, 2012).

For series [1], the system named is dengue reporter virus. It counts as cell-based.
Series [2] has as its system DENV-2 NGC. The series is described as follows: CPE-reduction assay. Particulars: 25 and 12.5 µM, Vero-B cells, day 8 p.i.
Series [3] concerns DENV-2 NGC. It counts as cell-based, dengue virus.
In series [4] the test system is uninfected host cell cultures. Put plainly: Cell counting with a Coulter Counter. It counts as cell-based. The note with it: 50 and 100 µM, cells counted with a Coulter Counter.
Series [5] deals with DiD-labeled DENV. The series is described as follows: Fusion assay with DiD-labeled DENV. Format: cell-based, dengue virus. The note with it: BS-C-1 cells; for membrane fusion activity of DENV, reference controls: NH4Cl 50 mM, chlorpromazine 60 µM.
Series [6] concerns P388D1 cells.
The test system of series [7] is YFV-17D. It counts as cell-based, yellow fever virus.
The test system of series [8] is Vero-B cells.
Series [9] deals with YFV-17D. Format: cell-based, yellow fever virus. The source holds these as a separate data set.
For series [10], the system named is DENV subgenomic replicon. Put plainly: DENV replicon system. It counts as cell-based, dengue virus. Particulars: BHK-Rep-Pac-LUC cells, luciferase at 72 hours.
In series [11] the test system is DENV-2. The series is described as follows: Virucidal assay. Particulars: 50 µM, 1 h, 37°C, with or without RNase A.

On to `CC(C)(C)OC(=O)NC1C(=O)NC2Cc3ccc(c(Cl)c3)Oc3cc4cc(c3O)Oc3ccc(cc3Cl)C(O)C3NC(=O)C(NC(=O)C4NC(=O)C(NC2=O)c2cc(O)cc(c2)Oc2cc1ccc2O)c1ccc(O)c(c1)-c1c(O)cc(O)cc1C(C(=O)NC1C2CC4CC(C2)CC1C4)NC3=O` (centres unmarked) [LCTA-949], for which, in series [1], the “inhibition of DENV infection” value is recorded as “failed to efficiently inhibit”; the “inhibition of viral replication and viral antigen expression” value is given as “nearly complete inhibition”. In addition, the “DENV-2-induced CPE formation” value in [2] is given as “completely inhibited”. For the same molecule, in series [3], the “DENV E protein expression” value is recorded as “completely inhibited”. Besides, the cytostatic effects entry in [4] is “some cytostatic effects”. The “membrane fusion activity of DENV” value in [5] (20 min p.i. at 37°C, 6.25-25.0 µM) was “markedly impaired”. For the same molecule, in [6], the cytotoxic effects result is given as “No cytotoxic effects”. Besides, the “YFV NS1 protein expression” value in [7] is recorded as “completely inhibited”. Besides, in series [8], the cytotoxicity result is reported as “did not prove cytotoxic” and the “viability of uninfected host cell cultures” value was “did not reduce viability”. For the same molecule, the CC50 in [8] (green monkey) is greater than 100 µM. For the same molecule, in [9], the “inhibition of viral replication” value was “nearly complete inhibition” and the “protective activity against YFV” value is “most of the protective activity of LCTA-949 was already lost”. In series [10], the “replication of the DENV subgenomic replicon” value is given as “did not inhibit”. Besides, in series [11], the direct virucidal activity result was “does not destroy the viral particle”.

For the molecule `Cl.N` [ammonium chloride], the “membrane fusion activity of DENV, reference controls” value in [5] was “efficiently reduced”.

Take `CN(C)CCCN1c2ccccc2Sc2ccc(Cl)cc21` [chlorpromazine]: the “membrane fusion activity of DENV, reference controls” value in [5] was “efficiently reduced”.

What is called CC50 is the concentration that lowers cell viability or growth by half.
